# Measured values published in ChEMBL document CHEMBL3822398, “Design, synthesis and in vitro biological evaluation of short-chain C12-sphinganine and its 1,2,3-triazole analogs as potential antimicrobial and anti-biofilm agents” (Eur J Med Chem, 2016).
# Tested on: Candida albicans
# Assay: Antifungal activity against Candida albicans MTCC 7315 incubated for 24 hrs at 30 degC by well diffusion method
# Assay type: functional
# Details: MTCC 7315, 24 h
row,MIC,SMILES
1,62.5 µg/mL,CCCCCCCCC[C@@H](O)[C@H](CO)n1cc(-c2ccccc2)nn1

# Tested on: Candida albicans
# Assay: Fungicidal activity against Candida albicans MTCC 3018 incubated for 24 hrs
# Assay type: functional
# Details: MTCC 3018, 24 h
row,SMILES,MFC
1,CCCCCCCCC[C@@H](O)[C@H](CO)n1cc(-c2ccccc2)nn1,125 µg/mL

# Tested on: Candida albicans
# Assay: Fungicidal activity against Candida albicans MTCC 183 incubated for 24 hrs
# Assay type: functional
# Details: MTCC 183, 24 h
row,SMILES,MFC
1,CCCCCCCCC[C@@H](O)[C@H](CO)n1cc(-c2ccccc2)nn1,62.5 µg/mL

# Tested on: [Candida] aaseri
# Assay: Fungicidal activity against Candida aaseri MTCC 1962 incubated for 24 hrs
# Assay type: functional
# Details: Yamadazyma aaseri, MTCC 1962, 24 h
row,SMILES,MFC
1,CCCCCCCCC[C@@H](O)[C@H](CO)n1cc(-c2ccccc2)nn1,31.2 µg/mL

# Tested on: Pichia sporocuriosa
# Assay: Fungicidal activity against Issatchenkia hanoiensis MTCC 4755 incubated for 24 hrs
# Assay type: functional
# Details: MTCC 4755, 24 h
row,SMILES,MFC
1,CCCCCCCCC[C@@H](O)[C@H](CO)n1cc(-c2ccccc2)nn1,125 µg/mL

# Tested on: Candida albicans
# Assay: Antifungal activity against Candida albicans MTCC 4748 incubated for 24 hrs at 30 degC by well diffusion method
# Assay type: functional
# Details: MTCC 4748, 24 h
row,MIC,SMILES
1,125 µg/mL,CCCCCCCCC[C@@H](O)[C@H](CO)n1cc(-c2ccccc2)nn1

# Tested on: Staphylococcus aureus
# Assay: Antibacterial activity against Staphylococcus aureus MLS16 MTCC 2940 incubated for 24 hrs at 37 degC by well diffusion method
# Assay type: functional
# Details: MLS16 MTCC 2940, 24 h
row,MIC,SMILES
1,15.6 µg/mL,CCCCCCCCC[C@@H](O)[C@H](CO)n1cc(-c2ccccc2)nn1

# Tested on: Candida albicans
# Assay: Fungicidal activity against Candida albicans MTCC 1637 incubated for 24 hrs
# Assay type: functional
# Details: MTCC 1637, 24 h
row,SMILES,MFC
1,CCCCCCCCC[C@@H](O)[C@H](CO)n1cc(-c2ccccc2)nn1,125 µg/mL

# Tested on: Escherichia coli
# Assay: Bactericidal activity against Escherichia coli MTCC 739 incubated for 24 hrs
# Assay type: functional
# Details: MTCC 739, 24 h
row,SMILES,MBC
1,CCCCCCCCC[C@@H](O)[C@H](CO)n1cc(-c2ccccc2)nn1,> 250 µg/mL

# Tested on: Pichia kudriavzevii
# Assay: Antifungal activity against Candida krusei MTCC 3020 incubated for 24 hrs at 30 degC by well diffusion method
# Assay type: functional
# Details: MTCC 3020, 24 h
row,MIC,SMILES
1,62.5 µg/mL,CCCCCCCCC[C@@H](O)[C@H](CO)n1cc(-c2ccccc2)nn1

# Tested on: Bacillus subtilis
# Assay: Bactericidal activity against Bacillus subtilis MTCC 121 incubated for 24 hrs
# Assay type: functional
# Details: MTCC 121, 24 h
row,SMILES,MBC
1,CCCCCCCCC[C@@H](O)[C@H](CO)n1cc(-c2ccccc2)nn1,15.6 µg/mL

# Tested on: Candida albicans
# Assay: Antifungal activity against Candida albicans MTCC 227 incubated for 24 hrs at 30 degC by well diffusion method
# Assay type: functional
# Details: MTCC 227, 24 h
row,MIC,SMILES
1,31.2 µg/mL,CCCCCCCCC[C@@H](O)[C@H](CO)n1cc(-c2ccccc2)nn1

# Tested on: Candida albicans
# Assay: Antifungal activity against Candida albicans MTCC 3018 incubated for 24 hrs at 30 degC by well diffusion method
# Assay type: functional
# Details: MTCC 3018, 24 h
row,MIC,SMILES
1,125 µg/mL,CCCCCCCCC[C@@H](O)[C@H](CO)n1cc(-c2ccccc2)nn1

# Tested on: Candida albicans
# Assay: Fungicidal activity against Candida albicans MTCC 7315 incubated for 24 hrs
# Assay type: functional
# Details: MTCC 7315, 24 h
row,SMILES,MFC
1,CCCCCCCCC[C@@H](O)[C@H](CO)n1cc(-c2ccccc2)nn1,62.5 µg/mL

# Tested on: Raoultella planticola
# Assay: Antibacterial activity against Klebsiella planticola MTCC 530 incubated for 24 hrs at 37 degC by well diffusion method
# Assay type: functional
# Details: MTCC 530, 24 h
row,SMILES,MIC
1,CCCCCCCCC[C@@H](O)[C@H](CO)n1cc(-c2ccccc2)nn1,31.2 µg/mL

# Tested on: Candida parapsilosis
# Assay: Fungicidal activity against Candida parapsilosis MTCC 1744 incubated for 24 hrs
# Assay type: functional
# Details: Lodderomyces parapsilosis, MTCC 1744, 24 h
row,SMILES,MFC
1,CCCCCCCCC[C@@H](O)[C@H](CO)n1cc(-c2ccccc2)nn1,62.5 µg/mL

# Tested on: Staphylococcus aureus
# Assay: Bactericidal activity against Staphylococcus aureus MTCC 96 incubated for 24 hrs
# Assay type: functional
# Details: MTCC 96, 24 h
row,SMILES,MBC
1,CCCCCCCCC[C@@H](O)[C@H](CO)n1cc(-c2ccccc2)nn1,15.6 µg/mL

# Tested on: Pichia sporocuriosa
# Assay: Antifungal activity against Issatchenkia hanoiensis MTCC 4755 incubated for 24 hrs at 30 degC by well diffusion method
# Assay type: functional
# Details: MTCC 4755, 24 h
row,MIC,SMILES
1,62.5 µg/mL,CCCCCCCCC[C@@H](O)[C@H](CO)n1cc(-c2ccccc2)nn1

# Tested on: Pseudomonas aeruginosa
# Assay: Antibacterial activity against Pseudomonas aeruginosa MTCC 2453 incubated for 24 hrs at 37 degC by well diffusion method
# Assay type: functional
# Details: MTCC 2453, 24 h
row,MIC,SMILES
1,> 250 µg/mL,CCCCCCCCC[C@@H](O)[C@H](CO)n1cc(-c2ccccc2)nn1

# Tested on: Candida albicans
# Assay: Antifungal activity against Candida albicans MTCC 3958 incubated for 24 hrs at 30 degC by well diffusion method
# Assay type: functional
# Details: MTCC 3958, 24 h
row,MIC,SMILES
1,62.5 µg/mL,CCCCCCCCC[C@@H](O)[C@H](CO)n1cc(-c2ccccc2)nn1

# Tested on: Raoultella planticola
# Assay: Bactericidal activity against Klebsiella planticola MTCC 530 incubated for 24 hrs
# Assay type: functional
# Details: MTCC 530, 24 h
row,SMILES,MBC
1,CCCCCCCCC[C@@H](O)[C@H](CO)n1cc(-c2ccccc2)nn1,62.5 µg/mL

# Tested on: Bacillus subtilis
# Assay: Antibacterial activity against Bacillus subtilis MTCC 121 incubated for 24 hrs at 37 degC by well diffusion method
# Assay type: functional
# Details: MTCC 121, 24 h
row,MIC,SMILES
1,15.6 µg/mL,CCCCCCCCC[C@@H](O)[C@H](CO)n1cc(-c2ccccc2)nn1

# Tested on: Candida albicans
# Assay: Antifungal activity against Candida albicans MTCC 183 incubated for 24 hrs at 30 degC by well diffusion method
# Assay type: functional
# Details: MTCC 183, 24 h
row,MIC,SMILES
1,62.5 µg/mL,CCCCCCCCC[C@@H](O)[C@H](CO)n1cc(-c2ccccc2)nn1

# Tested on: Candida albicans
# Assay: Fungicidal activity against Candida albicans MTCC 227 incubated for 24 hrs
# Assay type: functional
# Details: MTCC 227, 24 h
row,SMILES,MFC
1,CCCCCCCCC[C@@H](O)[C@H](CO)n1cc(-c2ccccc2)nn1,62.5 µg/mL

# Tested on: Micrococcus luteus
# Assay: Antibacterial activity against Micrococcus luteus MTCC 2470 incubated for 24 hrs at 37 degC by well diffusion method
# Assay type: functional
# Details: MTCC 2470, 24 h
row,MIC,SMILES
1,3.9 µg/mL,CCCCCCCCC[C@@H](O)[C@H](CO)n1cc(-c2ccccc2)nn1

# Tested on: Micrococcus luteus
# Assay: Bactericidal activity against Micrococcus luteus MTCC 2470 incubated for 24 hrs
# Assay type: functional
# Details: MTCC 2470, 24 h
row,SMILES,MBC
1,CCCCCCCCC[C@@H](O)[C@H](CO)n1cc(-c2ccccc2)nn1,7.8 µg/mL

# Tested on: Staphylococcus aureus
# Assay: Bactericidal activity against Staphylococcus aureus MLS16 MTCC 2940 incubated for 24 hrs
# Assay type: functional
# Details: MLS16 MTCC 2940, 24 h
row,SMILES,MBC
1,CCCCCCCCC[C@@H](O)[C@H](CO)n1cc(-c2ccccc2)nn1,31.2 µg/mL

# Tested on: Candida albicans
# Assay: Antifungal activity against Candida albicans MTCC 3017 incubated for 24 hrs at 30 degC by well diffusion method
# Assay type: functional
# Details: MTCC 3017, 24 h
row,MIC,SMILES
1,62.5 µg/mL,CCCCCCCCC[C@@H](O)[C@H](CO)n1cc(-c2ccccc2)nn1

# Tested on: Nakaseomyces glabratus
# Assay: Antifungal activity against Candida glabrata MTCC 3019 incubated for 24 hrs at 30 degC by well diffusion method
# Assay type: functional
# Details: MTCC 3019, 24 h
row,MIC,SMILES
1,62.5 µg/mL,CCCCCCCCC[C@@H](O)[C@H](CO)n1cc(-c2ccccc2)nn1

# Tested on: Candida albicans
# Assay: Antifungal activity against Candida albicans MTCC 1637 incubated for 24 hrs at 30 degC by well diffusion method
# Assay type: functional
# Details: MTCC 1637, 24 h
row,MIC,SMILES
1,125 µg/mL,CCCCCCCCC[C@@H](O)[C@H](CO)n1cc(-c2ccccc2)nn1

# Tested on: Candida albicans
# Assay: Fungicidal activity against Candida albicans MTCC 4748 incubated for 24 hrs
# Assay type: functional
# Details: MTCC 4748, 24 h
row,SMILES,MFC
1,CCCCCCCCC[C@@H](O)[C@H](CO)n1cc(-c2ccccc2)nn1,125 µg/mL

# Tested on: Staphylococcus aureus
# Assay: Antibacterial activity against Staphylococcus aureus MTCC 96 incubated for 24 hrs at 37 degC by well diffusion method
# Assay type: functional
# Details: MTCC 96, 24 h
row,MIC,SMILES
1,7.8 µg/mL,CCCCCCCCC[C@@H](O)[C@H](CO)n1cc(-c2ccccc2)nn1

# Tested on: Pichia kudriavzevii
# Assay: Fungicidal activity against Candida krusei MTCC 3020 incubated for 24 hrs
# Assay type: functional
# Details: MTCC 3020, 24 h
row,SMILES,MFC
1,CCCCCCCCC[C@@H](O)[C@H](CO)n1cc(-c2ccccc2)nn1,62.5 µg/mL

# Tested on: Candida albicans
# Assay: Fungicidal activity against Candida albicans MTCC 3017 incubated for 24 hrs
# Assay type: functional
# Details: MTCC 3017, 24 h
row,SMILES,MFC
1,CCCCCCCCC[C@@H](O)[C@H](CO)n1cc(-c2ccccc2)nn1,125 µg/mL

# Tested on: Escherichia coli
# Assay: Antibacterial activity against Escherichia coli MTCC 739 incubated for 24 hrs at 37 degC by well diffusion method
# Assay type: functional
# Details: MTCC 739, 24 h
row,MIC,SMILES
1,> 250 µg/mL,CCCCCCCCC[C@@H](O)[C@H](CO)n1cc(-c2ccccc2)nn1

# Tested on: [Candida] aaseri
# Assay: Antifungal activity against Candida aaseri MTCC 1962 incubated for 24 hrs at 30 degC by well diffusion method
# Assay type: functional
# Details: Yamadazyma aaseri, MTCC 1962, 24 h
row,MIC,SMILES
1,31.2 µg/mL,CCCCCCCCC[C@@H](O)[C@H](CO)n1cc(-c2ccccc2)nn1

# Tested on: Candida albicans
# Assay: Fungicidal activity against Candida albicans MTCC 3958 incubated for 24 hrs
# Assay type: functional
# Details: MTCC 3958, 24 h
row,SMILES,MFC
1,CCCCCCCCC[C@@H](O)[C@H](CO)n1cc(-c2ccccc2)nn1,125 µg/mL

# Tested on: Candida albicans
# Assay: Antifungal activity against Candida albicans MTCC 854 incubated for 24 hrs at 30 degC by well diffusion method
# Assay type: functional
# Details: MTCC 854, 24 h
row,MIC,SMILES
1,62.5 µg/mL,CCCCCCCCC[C@@H](O)[C@H](CO)n1cc(-c2ccccc2)nn1

# Tested on: Candida albicans
# Assay: Fungicidal activity against Candida albicans MTCC 854 incubated for 24 hrs
# Assay type: functional
# Details: MTCC 854, 24 h
row,SMILES,MFC
1,CCCCCCCCC[C@@H](O)[C@H](CO)n1cc(-c2ccccc2)nn1,62.5 µg/mL

# Tested on: Candida parapsilosis
# Assay: Antifungal activity against Candida parapsilosis MTCC 1744 incubated for 24 hrs at 30 degC by well diffusion method
# Assay type: functional
# Details: Lodderomyces parapsilosis, MTCC 1744, 24 h
row,MIC,SMILES
1,31.2 µg/mL,CCCCCCCCC[C@@H](O)[C@H](CO)n1cc(-c2ccccc2)nn1

# Tested on: Nakaseomyces glabratus
# Assay: Fungicidal activity against Candida glabrata MTCC 3019 incubated for 24 hrs
# Assay type: functional
# Details: MTCC 3019, 24 h
row,SMILES,MFC
1,CCCCCCCCC[C@@H](O)[C@H](CO)n1cc(-c2ccccc2)nn1,62.5 µg/mL
